In the supplement of paper PMC10307832:

Tests used:
Assay in all cases: relative viability (nuclei count vs DMSO), 5 days (fraction); higher = more cells survive
Dactolisib + Pemetrexed = compound: Cn1c(=O)n(-c2ccc(C(C)(C)C#N)cc2)c2c3cc(-c4cnc5ccccc5c4)ccc3ncc21 [Dactolisib] + Nc1nc2[nH]cc(CCc3ccc(C(=O)N[C@@H](CCC(=O)O)C(=O)O)cc3)c2c(=O)[nH]1 [Pemetrexed] (partner 0.2 µM)
Outline: (§1)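 Cells from lung cancer lines were seeded into 1536-well plates and, one day later, dosed by pin tool. Treatments were either a single drug or a fixed dose of an anchor drug with five library-drug doses (not always all listed) in √10 steps. After 5 days, nuclei were stained in a one-step fixation (final 0.05% Triton X-100, 1% formaldehyde, 1 ug/ml Hoechst) and counted on 4× images, and relative viability is the treated-to-vehicle nuclei ratio, as the median of duplicate plates.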

Dactolisib + Phenformin = compound: Cn1c(=O)n(-c2ccc(C(C)(C)C#N)cc2)c2c3cc(-c4cnc5ccccc5c4)ccc3ncc21 [Dactolisib] + N=C(N)NC(=N)NCCc1ccccc1 [Phenformin] (partner 250 µM)
Outline: as §1

Dactolisib + Foretinib = compound: Cn1c(=O)n(-c2ccc(C(C)(C)C#N)cc2)c2c3cc(-c4cnc5ccccc5c4)ccc3ncc21 [Dactolisib] + COc1cc2c(Oc3ccc(NC(=O)C4(C(=O)Nc5ccc(F)cc5)CC4)cc3F)ccnc2cc1OCCCN1CCOCC1 [Foretinib] (partner 0.25 µM)
Outline: as §1

AZ505 + Pictilisib = compound: C1CCC(CC1)N(CCNCCC2=C3C(=C(C=C2)O)NC(=O)CO3)C(=O)CCNCCC4=CC(=C(C=C4)Cl)Cl [AZ505] + CS(=O)(=O)N1CCN(Cc2cc3nc(-c4cccc5[nH]ncc45)nc(N4CCOCC4)c3s2)CC1 [Pictilisib] (partner 1 µM)
Outline: as §1

UMC-11
relative viability (Dactolisib + Pemetrexed; first compound 0.002 µM): 0.855 | relative viability (Dactolisib + Pemetrexed; first compound 0.006325 µM): 0.742 | relative viability (Dactolisib + Pemetrexed; first compound 0.02 µM): 0.552 | relative viability (Dactolisib + Pemetrexed; first compound 0.06325 µM): 0.453 | relative viability (Dactolisib + Pemetrexed; first compound 0.2 µM): 0.26 | relative viability (Dactolisib + Phenformin; first compound 0.002 µM): 0.326 | relative viability (Dactolisib + Phenformin; first compound 0.006325 µM): 0.326 | relative viability (Dactolisib + Phenformin; first compound 0.02 µM): 0.315 | relative viability (Dactolisib + Phenformin; first compound 0.06325 µM): 0.218 | relative viability (Dactolisib + Phenformin; first compound 0.2 µM): 0.22 | relative viability (Dactolisib + Foretinib; first compound 0.002 µM): 1.04 | relative viability (Dactolisib + Foretinib; first compound 0.006325 µM): 0.882 | relative viability (Dactolisib + Foretinib; first compound 0.02 µM): 0.671 | relative viability (Dactolisib + Foretinib; first compound 0.06325 µM): 0.273 | relative viability (Dactolisib + Foretinib; first compound 0.2 µM): 0.242 | relative viability (AZ505 + Pictilisib; first compound 0.08 µM): 0.753 | relative viability (AZ505 + Pictilisib; first compound 0.253 µM): 0.766 | relative viability (AZ505 + Pictilisib; first compound 0.8 µM): 0.688 | relative viability (AZ505 + Pictilisib; first compound 2.53 µM): 0.972 | relative viability (AZ505 + Pictilisib; first compound 8 µM): 0.974
